Assay results: patent US20100240093A1, “Isolated Staphylococcus Pseudolugdunensis” (priority 2006, published 2010)

Assays:
“S. pettenkoferi” = tested on: “S. pettenkoferi”; set-up: key: “R”, resistant; “S”, susceptible; “v”, variable; settings: Trulzsch et al. (2002); cited from earlier work
S. lugdunensis = tested on: S. lugdunensis; set-up: key: “R”, resistant; “S”, susceptible; “v”, variable; settings: cited from earlier work
isolate B837 = test: Novobiocin and polymyxin B resistance, phenotypic methods; type: cell-based, Staphylococcus pseudolugdunensis; set-up: key: “R”, resistant; “S”, susceptible; “v”, variable
From the text: (§1) Both clinical isolates and reference isolates were first identified by the conventional method based on colony size and pigment; anaerobic and aerobic growth; the presence of clumping factor, Staphaurex latex agglutination (Murex Diagnostics Inc., Norcross, Ga.), hemolysins, oxidase, ODC, urease, and PYR (De Paulis, A. N., et al (2003) J. Clin. Microbiol. 41: 1219-24, 16, 25, 33). Species identification further confirmed by using an API STAPH (bioMerieux Vitek, Inc., Hazelwood, Mo.) according to the manufacturer's instructions (Brun, Y., et al (1990) J. Clin. Microbiol. 8: 503-8; Chapin, K., and M. Musgnug (2003) J. Clin. Microbiol. 41: 4324-7; Gemmell, C. G., and J. E. Dawson (1982) J. Clin. Microbiol. 16:874-7; Heikens, E., et al (2005) J. Clin. Microbiol. 43: 2286-90; Layer, F., B. et al (2006) J. Clin. Microbiol. 44: 2824-30.). PYR and ODC were performed with S. aureus (ATCC#25923) and S. lugdunensis (ATCC#700328) included as negative and positive controls, respectively. Biochemical tests included acid production from D-glucose, D-trehalose, D-mannitol, D-mannose, xylose, maltose, lactose, sucrose, N-acetylglucosamine, raffinose, D-fructose, D-melibiose, xylitol, and α-methyl-glucosamine; nitrate reduction; and alkaline phosphatase, arginine dihydrolase, urease, and acetoin production. […] Biochemical reactions, including catalase, coagulase, D-glucose, D-mannitol, D-fructose, galactose, lactose, maltose, sucrose, D-trehalose, xylose, nitrate reduction, arginine dihydrolase, urease, and novobiocin and polymyxin B resistance, were further confirmed at the Tennessee Department of Health Laboratory Services in Nashville, Tenn., using phenotypic methods recommended by the United States Centers for Disease Control (CDC), Atlanta, Ga. (Kloose, W. E. and T. L. Bannerman (1995) Staphylococcus and Micrococcus, p. 282-298, in P. R. Murray et al. (eds.) Manual of Clinical Microbiology, 6th ed., American Society for Microbiology Press, Washington, D.C.; Kloose, W. E. and K. H. Schleifer (1975) J. Clin. Microbiol. 1: 82-88).

isolate B334 = test: as above; type: cell-based, Staphylococcus pseudolugdunensis; set-up: key: “R”, resistant; “S”, susceptible; “v”, variable
From the text: as §1

isolate B287 = test: as above; type: cell-based, Staphylococcus pseudolugdunensis; set-up: key: “R”, resistant; “S”, susceptible; “v”, variable
From the text: as §1

isolate B277 = test: as above; type: cell-based, Staphylococcus pseudolugdunensis; set-up: key: “R”, resistant; “S”, susceptible; “v”, variable
From the text: as §1

isolate B292 = test: as above; type: cell-based, Staphylococcus pseudolugdunensis; set-up: key: “R”, resistant; “S”, susceptible; “v”, variable
From the text: as §1

S. auricularis = tested on: S. auricularis; set-up: key: “R”, resistant; “S”, susceptible; “v”, variable; settings: cited from earlier work
Unknowns (n = 12) = test: Novobiocin and polymyxin B resistance, summary of isolates; type: cell-based, Staphylococcus pseudolugdunensis; settings: for Summary: resistance percentage: Unknowns (n = 12)
From the text: as §1

S. epidermidis = tested on: S. epidermidis; set-up: key: “R”, resistant; “S”, susceptible; “v”, variable; settings: cited from earlier work
isolate B354 = test: Novobiocin and polymyxin B resistance, phenotypic methods; type: cell-based, Staphylococcus pseudolugdunensis; set-up: key: “R”, resistant; “S”, susceptible; “v”, variable
From the text: as §1

isolate B060 = test: as above; type: cell-based, Staphylococcus pseudolugdunensis; set-up: key: “R”, resistant; “S”, susceptible; “v”, variable
From the text: as §1

isolate B739 = test: as above; type: cell-based, Staphylococcus pseudolugdunensis; set-up: key: “R”, resistant; “S”, susceptible; “v”, variable
From the text: as §1

isolate B715 = test: as above; type: cell-based, Staphylococcus pseudolugdunensis; set-up: key: “R”, resistant; “S”, susceptible; “v”, variable
From the text: as §1

isolate B230 = test: as above; type: cell-based, Staphylococcus pseudolugdunensis; set-up: key: “R”, resistant; “S”, susceptible; “v”, variable
From the text: as §1

isolate B006 = test: as above; type: cell-based, Staphylococcus pseudolugdunensis; set-up: key: “R”, resistant; “S”, susceptible; “v”, variable
From the text: as §1

Row | Compound | Resistance/Susceptibility (“S. pettenkoferi”) | Resistance/Susceptibility (S. lugdunensis) | Resistance/Susceptibility (isolate B837) | Resistance/Susceptibility (isolate B334) | Resistance/Susceptibility (isolate B287) | Resistance/Susceptibility (isolate B277) | Resistance/Susceptibility (isolate B292) | Resistance/Susceptibility (S. auricularis) | Summary: resistance percentage (Unknowns (n = 12)) [percentage] | Resistance/Susceptibility (S. epidermidis) | Resistance/Susceptibility (isolate B354) | Resistance/Susceptibility (isolate B060) | Resistance/Susceptibility (isolate B739) | Resistance/Susceptibility (isolate B715) | Resistance/Susceptibility (isolate B230) | Resistance/Susceptibility (isolate B006) | Relative resistance of S. pseudolugdunensis to polymyxin B and novobiocin (Unknowns (n = 12); Staphylococcus pseudolugdunensis bacteria)
1 | CO[C@@H]1[C@@H](OC(N)=O)[C@@H](O)[C@H](Oc2ccc3c(O)c(NC(=O)c4ccc(O)c(CC=C(C)C)c4)c(=O)oc3c2C)OC1(C)C [Novobiocin] | S | S | R | R | R | R | R | S | 42 | S |  |  |  |  |  |  | 
2 | Polymyxin B |  | v | R | S | S |  | S | S | 8 | R | S | S | S | S | S | S | more resistant to polymyxin B than to novobiocin
